Test results: the supplement of paper PMC10307832

What was measured:
Test in all cases: relative viability (nuclei count vs DMSO), 5 days (fraction); higher = more cells survive
AZD8055 + Bortezomib = compound: COc1ccc(-c2ccc3c(N4CCOC[C@@H]4C)nc(N4CCOC[C@@H]4C)nc3n2)cc1CO [AZD8055] + CC(C)C[C@H](NC(=O)[C@H](Cc1ccccc1)NC(=O)c1cnccn1)B(O)O [Bortezomib] (partner 0.002 µM)
Summary of the method: (§1)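 Lung cancer cell lines in 1536-well plates got either a single drug or a fixed anchor-drug dose together with five library-drug doses (not always all listed) in √10 steps, by pin tool, on the day after seeding. Nuclei were counted after 5 days, and relative viability is the treated-to-vehicle ratio of nuclei counts. Values are medians of duplicate plates.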

AZD8055 + Lapatinib = compound: COc1ccc(-c2ccc3c(N4CCOC[C@@H]4C)nc(N4CCOC[C@@H]4C)nc3n2)cc1CO [AZD8055] + CS(=O)(=O)CCNCc1ccc(-c2ccc3ncnc(Nc4ccc(OCc5cccc(F)c5)c(Cl)c4)c3c2)o1 [Lapatinib] (partner 2 µM)
Summary of the method: as §1

AZD8055 + AZD7762 = compound: COc1ccc(-c2ccc3c(N4CCOC[C@@H]4C)nc(N4CCOC[C@@H]4C)nc3n2)cc1CO [AZD8055] + NC(=O)Nc1cc(-c2cccc(F)c2)sc1C(=O)N[C@H]1CCCNC1 [AZD7762] (partner 0.2 µM)
Summary of the method: as §1

AZD8055 + Decitabine = compound: COc1ccc(-c2ccc3c(N4CCOC[C@@H]4C)nc(N4CCOC[C@@H]4C)nc3n2)cc1CO [AZD8055] + Nc1ncn([C@H]2C[C@H](O)[C@@H](CO)O2)c(=O)n1 [Decitabine] (partner 2 µM)
Summary of the method: as §1

In the case of LOU-NH91, the relative viability (AZD8055 + Bortezomib; first compound 0.01 µM) was 0.452, the relative viability (AZD8055 + Bortezomib; first compound 0.03162 µM) was 0.512 and the relative viability (AZD8055 + Bortezomib; first compound 0.1 µM) was 0.489. It also gave a relative viability (AZD8055 + Bortezomib; first compound 0.3162 µM) of 0.497, a relative viability (AZD8055 + Bortezomib; first compound 1 µM) of 0.381 and a relative viability (AZD8055 + Lapatinib; first compound 0.01 µM) of 0.68. It also gave a relative viability (AZD8055 + Lapatinib; first compound 0.03162 µM) of 0.679, a relative viability (AZD8055 + Lapatinib; first compound 0.1 µM) of 0.56 and a relative viability (AZD8055 + Lapatinib; first compound 0.3162 µM) of 0.484. The relative viability (AZD8055 + Lapatinib; first compound 1 µM) was 0.548, the relative viability (AZD8055 + AZD7762; first compound 0.01 µM) was 0.684 and the relative viability (AZD8055 + AZD7762; first compound 0.03162 µM) was 0.702. For the same cell line, the relative viability (AZD8055 + AZD7762; first compound 0.1 µM) was 0.621, the relative viability (AZD8055 + AZD7762; first compound 0.3162 µM) was 0.557 and the relative viability (AZD8055 + AZD7762; first compound 1 µM) was 0.555. It also gave a relative viability (AZD8055 + Decitabine; first compound 0.01 µM) of 0.85, a relative viability (AZD8055 + Decitabine; first compound 0.03162 µM) of 0.809 and a relative viability (AZD8055 + Decitabine; first compound 0.1 µM) of 0.72. The relative viability (AZD8055 + Decitabine; first compound 0.3162 µM) was 0.577 and the relative viability (AZD8055 + Decitabine; first compound 1 µM) was 0.615.

For LU99A, the relative viability (AZD8055 + Bortezomib; first compound 0.01 µM) was 0.936, the relative viability (AZD8055 + Bortezomib; first compound 0.03162 µM) was 0.549 and the relative viability (AZD8055 + Bortezomib; first compound 0.1 µM) was 0.374. The relative viability (AZD8055 + Bortezomib; first compound 0.3162 µM) was 0.235, the relative viability (AZD8055 + Bortezomib; first compound 1 µM) was 0.209 and the relative viability (AZD8055 + Lapatinib; first compound 0.01 µM) was 0.824. The relative viability (AZD8055 + Lapatinib; first compound 0.03162 µM) was 0.458, the relative viability (AZD8055 + Lapatinib; first compound 0.1 µM) was 0.329 and the relative viability (AZD8055 + Lapatinib; first compound 0.3162 µM) was 0.218. It also gave a relative viability (AZD8055 + Lapatinib; first compound 1 µM) of 0.228, a relative viability (AZD8055 + AZD7762; first compound 0.01 µM) of 0.366 and a relative viability (AZD8055 + AZD7762; first compound 0.03162 µM) of 0.242. It also gave a relative viability (AZD8055 + AZD7762; first compound 0.1 µM) of 0.185, a relative viability (AZD8055 + AZD7762; first compound 0.3162 µM) of 0.152 and a relative viability (AZD8055 + AZD7762; first compound 1 µM) of 0.133. It also gave a relative viability (AZD8055 + Decitabine; first compound 0.01 µM) of 1, a relative viability (AZD8055 + Decitabine; first compound 0.03162 µM) of 0.666 and a relative viability (AZD8055 + Decitabine; first compound 0.1 µM) of 0.417. For the same cell line, the relative viability (AZD8055 + Decitabine; first compound 0.3162 µM) was 0.222 and the relative viability (AZD8055 + Decitabine; first compound 1 µM) was 0.188.

Work on LXF-289 yielded a relative viability (AZD8055 + Bortezomib; first compound 0.01 µM) of 1.06, a relative viability (AZD8055 + Bortezomib; first compound 0.03162 µM) of 0.982 and a relative viability (AZD8055 + Bortezomib; first compound 0.1 µM) of 0.951. It also gave a relative viability (AZD8055 + Bortezomib; first compound 0.3162 µM) of 0.682, a relative viability (AZD8055 + Bortezomib; first compound 1 µM) of 0.756 and a relative viability (AZD8055 + Lapatinib; first compound 0.01 µM) of 0.939. It also gave a relative viability (AZD8055 + Lapatinib; first compound 0.03162 µM) of 0.903, a relative viability (AZD8055 + Lapatinib; first compound 0.1 µM) of 0.846 and a relative viability (AZD8055 + Lapatinib; first compound 0.3162 µM) of 0.804. The relative viability (AZD8055 + Lapatinib; first compound 1 µM) was 0.708, the relative viability (AZD8055 + AZD7762; first compound 0.01 µM) was 1.28 and the relative viability (AZD8055 + AZD7762; first compound 0.03162 µM) was 1.2. For the same cell line, the relative viability (AZD8055 + AZD7762; first compound 0.1 µM) was 1.19, the relative viability (AZD8055 + AZD7762; first compound 0.3162 µM) was 0.978 and the relative viability (AZD8055 + AZD7762; first compound 1 µM) was 0.744. It also gave a relative viability (AZD8055 + Decitabine; first compound 0.01 µM) of 0.397, a relative viability (AZD8055 + Decitabine; first compound 0.03162 µM) of 0.317 and a relative viability (AZD8055 + Decitabine; first compound 0.1 µM) of 0.369. It also gave a relative viability (AZD8055 + Decitabine; first compound 0.3162 µM) of 0.343 and a relative viability (AZD8055 + Decitabine; first compound 1 µM) of 0.356.

With NCI-H23 the relative viability (AZD8055 + Bortezomib; first compound 0.01 µM) was 1.3, the relative viability (AZD8055 + Bortezomib; first compound 0.03162 µM) was 0.881 and the relative viability (AZD8055 + Bortezomib; first compound 0.1 µM) was 0.791. The relative viability (AZD8055 + Bortezomib; first compound 0.3162 µM) was 0.27, the relative viability (AZD8055 + Bortezomib; first compound 1 µM) was 0.271 and the relative viability (AZD8055 + Lapatinib; first compound 0.01 µM) was 1.15. For the same cell line, the relative viability (AZD8055 + Lapatinib; first compound 0.03162 µM) was 0.804, the relative viability (AZD8055 + Lapatinib; first compound 0.1 µM) was 0.792 and the relative viability (AZD8055 + Lapatinib; first compound 0.3162 µM) was 0.369. The relative viability (AZD8055 + Lapatinib; first compound 1 µM) was 0.35, the relative viability (AZD8055 + AZD7762; first compound 0.01 µM) was 0.202 and the relative viability (AZD8055 + AZD7762; first compound 0.03162 µM) was 0.245. The relative viability (AZD8055 + AZD7762; first compound 0.1 µM) was 0.233, the relative viability (AZD8055 + AZD7762; first compound 0.3162 µM) was 0.161 and the relative viability (AZD8055 + AZD7762; first compound 1 µM) was 0.14. For the same cell line, the relative viability (AZD8055 + Decitabine; first compound 0.01 µM) was 0.252, the relative viability (AZD8055 + Decitabine; first compound 0.03162 µM) was 0.287 and the relative viability (AZD8055 + Decitabine; first compound 0.1 µM) was 0.262. For the same cell line, the relative viability (AZD8055 + Decitabine; first compound 0.3162 µM) was 0.225 and the relative viability (AZD8055 + Decitabine; first compound 1 µM) was 0.262.
